Measured values reported in patent US4562073A, “Penicillin derivatives” (Taiho Pharmaceutical Company Limited, priority 1982, dated 1985).
Converted amounts (≈) assume the structure as drawn.

test system: 30 strains of coliform bacilli collected from the living body of humans; experiment: MIC50/MIC70 against 30 strains of coliform bacilli; type: cell-based; settings: 70% of the 30 strains
Procedure: The MIC of ampicillin as combined with the present compound (10 μg/ml) was measured against the same bacteria. In the method, the bacteria cultivated in Mueller Hinton Broth (product of DIFCO) and diluted to 10^7 CFU/ml were inoculated into the same medium containing ampicillin and the present compound in a specific concentration, and incubated at 37° C. for 20 hours. […] The bacteria as used in the test were those capable of producing β-lactamase, among which the bacteria marked * in the table are those collected from the living body of human hosts and the others are a stock culture.
(2) Effects by antibiotics as combined with the present compound
The compounds of the present invention, ampicillin, mecillinam, piperacillin and cephalexin, each singly used, were also tested for minimal inhibitory concentration against 30 strains of coliform bacilli collected from the living body of humans. The MIC of each antibiotic as combined with the present compound (10 μg/ml) was likewise measured. Table 3 to 6 indicate the results in which MIC50 and MIC70 indicate the minimal inhibitory concentration for inhibiting the growth of 50% and 70% respectively of the strains. The MICs of the present compounds singly used were all more than 25 μg/ml.

MIC70, ampicillin singly used [µg/mL]	SMILES
400 (≈ 1140 µM)	CC1(C)S[C@@H]2[C@H](NC(=O)[C@H](N)c3ccccc3)C(=O)N2[C@H]1C(=O)O [Ampicillin, ampicillin, reference compound]

same assay, conditions: 70% of the 30 strains; present compound 10 μg/ml

SMILES	MIC70 of ampicillin combined with present compound [µg/mL]	MIC70 of cephalexin combined with present compound [µg/mL]	MIC70 of mecillinam combined with present compound [µg/mL]	MIC70 of piperacillin combined with present compound [µg/mL]
C[C@]1(Cn2cc(C(=O)O)nn2)[C@H](C(=O)O)N2C(=O)C[C@H]2S1(=O)=O [Compound 16, dipotassium 2β-(4-carboxy-1,2,3-triazol-1-yl)methyl-2α-methylpenam-3α-carboxylate-1,1-dioxide]	6.25	25	0.1	3.13
C[C@]1(Cn2ccnn2)[C@H](C(=O)O)N2C(=O)C[C@H]2S1(=O)=O [Compound 22, sodium 2α-methyl-2β-(1,2,3-triazol-1-yl)methylpenam-3α-carboxylate-1,1-dioxide]	6.25	50	0.2	1.56

The next lines start with the values.

MIC70 of ampicillin combined with present compound [µg/mL]	MIC70 of cephalexin combined with present compound [µg/mL]	MIC70 of mecillinam combined with present compound [µg/mL]	MIC70 of piperacillin combined with present compound [µg/mL]	SMILES
50	100	0.39	6.25	CCOC(=O)c1cn(C[C@@]2(C)[C@H](C(=O)O)N3C(=O)C[C@H]3S2(=O)=O)nn1 [Compound 7, sodium 2β-(4-ethoxycarbonyl-1,2,3-triazol-1-yl)methyl-2α-methylpenam-3α-carboxylate-1,1-dioxide]
100	100	0.39	25	CCOC(=O)c1cnnn1C[C@@]1(C)[C@H](C(=O)O)N2C(=O)C[C@H]2S1(=O)=O [Compound 11, sodium 2β-(5-ethoxycarbonyl-1,2,3-triazol-1-yl)methyl-2α-methylpenam-3α-carboxylate-1,1-dioxide]
100	–	0.39	50	C[C@]1(Cn2nncc2C(=O)O)[C@H](C(=O)O)N2C(=O)C[C@H]2S1(=O)=O [Compound 17, dipotassium 2β-(5-carboxy-1,2,3-triazol-1-yl)methyl-2α-methylpenam-3α-carboxylate-1,1-dioxide]
